Source: patent publication US20260284076A1, “TESTOSTERONE AND DIFLUOROMETHYLORNITHINE COMBINATION THERAPY FOR PROSTATE CANCER” (The Johns Hopkins University, priority 2023, published 2026)
Entries after “also recorded” stand apart in the source; their conditions may differ. Counter-ions that a name gives are not always drawn.

What was measured:
[1] = cited from earlier work
[2] = system: MYC in LNCaP and VCaP cells; assay: MYC expression by western blot, RT-PCR, RNAseq; format: cell-based, human; details: R1881 10 nM, DFMO 5 mM, 96 hours; monohydrochloride, monohydrate
Source text: (§1) FIG. 5A, FIG. 5B, FIG. 5C, FIG. 5D, and FIG. 5E show: FIG. 5A, MYC expression by IHC in a metastatic tumor biopsy from a patient before and after 3 months of BAT. FIG. 5B, Quantification of MYC protein expression from metastatic tumor biopsies from patients before and after 3 months of BAT color-coded by response (non-responder NR; responder R). […] Vinculin was used as a loading control. FIG. 5D, Principal component analysis of RNA and ATAC sequencing of LNCaP cells treated for 5 days with R1881 10 nM (SPA). […] Vinculin was used as a loading control;

[3] = system: hypusinated eIF5A in PCa cell lines; assay: Total and hypusinated eIF5A by western blot; format: cell-based, human
Source text: as §1
FIG. 24A. Schematic highlighting generation of hypusinated eIF5A from spermidine. […] Vinculin is used as a loading control. Representative blots of n=2 independent experiments;

VCaP cells = assay: Colony formation (clonal survival); format: cell-based, human; details: with or without R1881 0.5 nM, 96 hours, colonies at 14 days; monohydrochloride, monohydrate
Source text: (§2) FIG. 3A. […] Ns, not significant. FIG. 3B. […] Ns, not significant. FIG. 3C. […] P values by ANOVA;

LNCaP cells [4] = assay: Colony formation (clonal survival); format: cell-based, human; details: with or without R1881 0.5 nM, 96 hours, colonies at 14 days; monohydrochloride, monohydrate
Source text: as §2

LNCaP cells [5] = assay: RNAseq of treated LNCaP cells; format: cell-based, human; details: 96 hours
Source text: Overlap of differentially expressed transcripts occurring due to treatment as per (FIG. 27A). […] Change in RNA transcript abundance of genes located with the 8q24 topologically associated domain (TAD) in LNCaP cells treated as per (FIG. 27A).

[6] = system: AMD1 transcript in LNCaP cells; assay: AMD1 transcript stability after actinomycin, RT-PCR; format: cell-based, human
CRPC = details: post-abiraterone, pre-chemotherapy setting; cited from earlier work
[7] = system: metastatic CRPC, pre-chemotherapy setting; details: cited from earlier work
[8] = system: chronically castrated patients with rising PSA and CRPC; assay: Pilot study of BAT with oral etoposide, then second line therapy post-BAT; format: in vivo, human; details: post-BAT
Source text: Based on the preclinical results and potential mechanisms for growth inhibition that include androgen-induced double strand breaks and stabilization of AR preventing relicensing, we have conducted a pilot study evaluating the efficacy and safety of pharmacologic doses of testosterone to produce high dose T levels in conjunction with oral etoposide in chronically castrated patients with rising PSA and CRPC (37). Patients who had been continuously castrate for more than one year with minimal metastatic disease burden (≤5 total bone metastases and ≤10 total sites of metastases) and/or rising PSA were eligible. To achieve rapid cycling between high dose and near castrate serum T (i.e., BAT) patients received intramuscular injection of 400 mg testosterone cypionate every 28 days. For the first 3 cycles of therapy patients received BAT plus oral etoposide 100 mg po/day days 1-14 of a 28-day cycle. After 3 cycles PSA response and objective response were assessed. Those patients with a PSA that was declining from peak levels and no objective evidence of disease progression or worsening pain were continued on therapy. Given the toxicity associated with etoposide and the lack of clinical response in an earlier trial (38), patients who responded after 3 cycles of testosterone plus etoposide were continued on testosterone alone based on protocol amendment.

human T lymphocytes = details: CD3/CD28-stimulated cells, 24 hours, 5 donors
Procedure: Protein expression of ODC and AR by western blot of human T cells cultured for 24 hours with vehicle control (EtOH 0.1%), SPA, or enzalutamide (ENZA; 10 μM) in the presence of no stimulation or CD3- and CD28-stimulation with dynabeads. Vinculin is used a loading control. FIG. 22J. Quantification of protein expression of ODC by western blot as per (FIG. 22I), displaying data from independent experiments of 5 different donors with indicated sex. P values by unpaired 2-tailed t test;
To assess whether AR regulates expression of polyamine synthesis enzymes in cells beyond prostate, we isolated human T lymphocytes from peripheral blood of 5 donors, treated unstimulated or CD3/CD28-stimulated cells with vehicle control, SPA, or the AR inhibitor enzalutamide for 24 hours, and measured ODC.

CRPC post docetaxel = details: post-docetaxel setting; cited from earlier work
[9] = system: asymptomatic patients with CRPC progressing on Abi; assay: TRANSFORMER randomized Phase II study, BAT vs. Enza with crossover; format: in vivo, human
Procedure: The TRANSFORMER study (NCT02286921) was a DOD-sponsored randomized Phase II study designed to compare the efficacy of BAT vs. Enza in asymptomatic patients with CRPC progressing on Abi, FIG. 19A (2). The study was conducted at 17 academic centers across the US. The study was coordinated by the Prostate Cancer Disease Group clinical research team at Johns Hopkins, who performed regulatory oversight, study/site monitoring, and data analyses. From 2015-2018, 195 patients underwent 1:1 randomization to either standard dose Enza (n=101) or BAT (n=94) at 400 mg IM every 28 days. The primary endpoint was clinical/radiographic PFS. At time of progression, patients were given the option to crossover to the alternate therapy. The trial was designed to show a 50% improvement in the primary endpoint for BAT vs. Enza. […] Objective response was 24.4% for BAT and 4.2% for Enza (p=0.067). Best PSA50 was 26.4% for BAT and 25.5% for Enza (p=0.697).
At time of progression, 46 (49%) of patients on the Enza arm crossed over to receive BAT and 34 (33.7%) crossed over from BAT to receive Enza and were available for analysis. Remarkably, the PSAso response for patients who received Enza after BAT was 72.7% compared to 25.5% for patients receiving Enza immediately after Abi, FIG. 19D. Objective response in the Enza post-BAT patients was 28.6% compared to 4.2% post-Abi, FIG. 19B. […] The logical extension of these findings and the hypothesis of this proposal is that patients are likely to respond again to further repeat cycles of BAT and Enza, but this treatment strategy has yet to be explored in the clinical trial setting.

[10] = system: patients with CRPC progressing on Enza (Cohort A) or Abi (Cohort B); format: in vivo, human; details: re-exposed to agent progressed on before BAT
Source text: The RESTORE study (NCT02090114) was an NIH sponsored Phase II study designed to assess the safety and efficacy of BAT in patients (n=30 per cohort) with CRPC progressing on Enza (Cohort A) or Abi (Cohort B), FIG. 18A (34,39). The primary endpoint of the first part of the study was to assess PSA response to BAT. Secondary endpoints included objective response, safety, and quality of life. The second part of the study was to determine in BAT could re-sensitize patients to repeat exposure to second line therapy that patients were progressing on prior to receiving BAT. Thus, patients progressing on Enza were re-exposed to Enza after BAT and similarly for Abi. Both arms of this study met the primary endpoint. PSA50 response to BAT was 30% in patient's post-Enza and 18% post-Abi, FIG. 18B. […] Overall duration of response to BAT and duration of response to re-exposure was longer in the post-Enza vs. post-Abi cohort. The PSAso response to re-exposure to Enza was 71% vs. only 21% for patients re-exposed to Abi, FIG. 19B (7). A third cohort was later added (Cohort C) for patients progressing on ADT alone. Overall, 90 patients were treated on this study over a 4-year period (2014-2018).

## NCCCC(N)(C(=O)O)C(F)F (stereo not shown) [DFMO, 2-(difluoromethyl)-ornithine, monohydrochloride, monohydrate]
[1]; high doses
  side-effects of high doses: reversible ototoxicity and myelosuppression
[1]; human, in vivo
  chemoprevention trials of breast and cervix cancer: negative
  doses not consistently associated with ototoxicity and myelosuppression: less than 1 g/m2/d
[1]; over one year
  prostate polyamine levels and prostate growth: can reduce prostate polyamine levels and the rate of growth of the prostate
[2]
  MYC expression: reduced; also recorded: enhances downregulation of MYC by SPA
[3]
  eIF5A hypusination: marked reduction
VCaP cells
  clonal survival / colony formation: inhibited clonal survival to a greater extent in R1881-treated cells than vehicle control-treated cells; also recorded: decreased colony formation
LNCaP cells [4]
  clonal survival / colony formation: decreased colony formation
LNCaP cells [5]
  differentially expressed transcripts vs VEH: fewer
[6]; 96 hours treatment then actinomycin 5 μg/mL
  half-life of AMD1 transcript: > 8 h
[6]; monohydrochloride, monohydrate
  stability of AMD1 transcript: markedly increased stability; also recorded: stabilizes

## CNC(=O)c1ccc(N2C(=S)N(c3ccc(C#N)c(C(F)(F)F)c3)C(=O)C2(C)C)cc1F [Enzalutamide, 4-{3-[4-cyano-3-(trifluoromethyl)phenyl]-5,5dimethyl-4-oxo-2-sulfanylideneimidazolidin-1-yl}-2-fluoro-N-methylbenzamide]
CRPC
  median rPFS: ≤ 6 months
[7]; 95% CI 0.60 to 0.84
  hazard ratio, overall survival vs placebo: 0.71
[7]; PREVAIL, enzalutamide group
  median overall survival: 32.4 months
[7]; PREVAIL
  >50% decline PSA (%): 78%
  PSA PFS: 11.2
  TIP (m): 20 m
[8]
  patients with >50% PSA decline on second line therapy: 3/4
[8]; agent previously progressed on
  PSA decline upon re-challenge: 53.2%
Human T lymphocytes
  ODC protein: decreased ODC in all donors
CRPC post docetaxel
  improvement in survival: approximately 5 months
[9]; Enza after BAT (crossover), listed as Enza
  PSA50 response: 72.7%
[9]; Enza after BAT (crossover), listed as enzalutamide
  PSA50 response: 78%
[9]; Enza immediately post-Abi, without prior BAT
  Time to PSA progression: 3.8 months
[9]; Enza post-BAT
  Objective response: 28.6%
  Time to PSA progression: 10.9 months
[9]; enzalutamide after prior BAT
  overall survival: 37 months
[9]; enzalutamide without prior BAT
  overall survival: 29 months
[9]; initial treatment immediately after Abi, no prior crossover, listed as Enza
  PSA50 response: 25.5%
[9]; initial treatment immediately after Abi, no prior crossover, listed as enzalutamide
  PSA50 response: 25%
[9]; post-BAT vs immediately post-Abi
  fold increase in time to PSA progression on Enza: ~3 fold
[9]; randomized arms
  clinical/radiographic PFS: 5.72 m
[9]; randomized arms, post-Abi
  Objective response: 4.2%
[10]
  PSA50 response to re-exposure (re-challenge) post-BAT: 71%
